Results on 10 molecules are retold here after patent publication US20140023611A1 (priority 2010, published 2014).

A short description of series [1]: Stability of compounds in simulated gastric fluid (SGF). The class given is in vitro ADME. The note with it: simulated gastric fluid (3 mg/mL pepsin), incubation time 6 hr, relative to t=0. An outline of the steps: (§1)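 Compounds at […] were incubated 3 or 6 hr in USP simulated gastric fluid with 3 mg/mL pepsin or simulated intestinal fluid with 3 mg/mL pancreatin. Remaining compound was quantified by HPLC-UV or HPLC-MS peak area % and reported as percent of the t=0 level in the same medium.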

The nature of series [2]: Stability of compounds in simulated intestinal fluid (SIF). Type of series: in vitro ADME. The note with it: simulated intestinal fluid (3 mg/mL pancreatin), incubation time 6 hr, relative to t=0. Summed up:
as §1

The next series addresses T1, human NaP2b (SLC34A2) (Homo sapiens, UniProt O95436).
T1 construct: host or cells: HEK293
T1 sequence (O95436 1-690): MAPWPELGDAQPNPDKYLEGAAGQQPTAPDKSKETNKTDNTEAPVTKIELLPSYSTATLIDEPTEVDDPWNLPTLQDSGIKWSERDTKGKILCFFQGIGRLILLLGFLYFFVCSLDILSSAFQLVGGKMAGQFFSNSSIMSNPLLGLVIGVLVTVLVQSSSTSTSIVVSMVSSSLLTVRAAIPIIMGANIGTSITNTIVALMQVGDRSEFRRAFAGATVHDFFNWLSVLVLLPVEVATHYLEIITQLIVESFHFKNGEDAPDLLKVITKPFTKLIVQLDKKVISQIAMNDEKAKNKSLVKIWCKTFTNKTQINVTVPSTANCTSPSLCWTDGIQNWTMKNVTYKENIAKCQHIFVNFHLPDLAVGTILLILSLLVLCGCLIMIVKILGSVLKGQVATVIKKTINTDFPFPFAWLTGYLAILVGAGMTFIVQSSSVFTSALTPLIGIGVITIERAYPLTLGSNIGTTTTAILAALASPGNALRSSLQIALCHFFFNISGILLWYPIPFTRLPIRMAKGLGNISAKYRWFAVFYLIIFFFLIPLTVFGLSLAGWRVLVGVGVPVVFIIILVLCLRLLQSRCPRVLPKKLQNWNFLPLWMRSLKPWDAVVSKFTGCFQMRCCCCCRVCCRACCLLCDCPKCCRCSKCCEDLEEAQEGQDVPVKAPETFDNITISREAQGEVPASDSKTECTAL
Description: Inhibition of NaP2b-mediated Pi (33P) uptake in transfected HEK293 cells, human NaP2b. Type of series: cell-based. The settings on record: for IC50: read-out: pIC50 range for human NaP2b (converted). Summed up: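 Uptake of 33P-phosphate (100 uM KH2PO4 carrier, sodium vs choline buffer, pH 7.4) measured after 3-30 min at room temperature, with test compound at twelve concentrations from 0.1 nM to 30 uM in duplicate. Cells were HEK293 transfected with mutated human NaP2b (Thr insertion after 37, N39D) and treated with a PiT-silencing agent. pIC50 values from scintillation counts.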

The target of the next series is T2, rat NaP2b (SLC34A2) (Rattus norvegicus, UniProt Q9JJ09).
T2 construct: host or cells: HEK293
T2 sequence (Q9JJ09 1-695): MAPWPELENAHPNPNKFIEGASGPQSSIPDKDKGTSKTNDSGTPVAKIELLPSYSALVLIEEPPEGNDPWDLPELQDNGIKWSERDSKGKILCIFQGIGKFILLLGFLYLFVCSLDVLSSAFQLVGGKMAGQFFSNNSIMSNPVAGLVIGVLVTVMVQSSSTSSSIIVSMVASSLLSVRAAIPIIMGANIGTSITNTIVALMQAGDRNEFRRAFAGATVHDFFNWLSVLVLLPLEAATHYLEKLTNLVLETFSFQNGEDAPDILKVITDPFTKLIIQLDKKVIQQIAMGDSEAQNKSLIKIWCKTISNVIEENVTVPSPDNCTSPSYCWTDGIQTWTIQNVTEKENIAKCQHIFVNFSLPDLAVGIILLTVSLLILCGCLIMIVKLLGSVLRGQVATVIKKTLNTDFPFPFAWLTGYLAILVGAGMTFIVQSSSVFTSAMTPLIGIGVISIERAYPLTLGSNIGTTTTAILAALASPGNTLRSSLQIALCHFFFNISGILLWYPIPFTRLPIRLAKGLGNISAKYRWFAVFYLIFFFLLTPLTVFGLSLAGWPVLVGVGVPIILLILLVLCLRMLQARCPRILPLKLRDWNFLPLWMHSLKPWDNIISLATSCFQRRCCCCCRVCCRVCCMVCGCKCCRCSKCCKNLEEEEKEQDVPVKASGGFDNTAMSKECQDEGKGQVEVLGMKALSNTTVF
Description: Inhibition of NaP2b-mediated Pi (33P) uptake in transfected HEK293 cells, rat NaP2b. The class given is cell-based. The settings on record: 33P Pi uptake, 0.1 mM phosphate, value given as pIC50 range. Summed up:
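The cells transiently expressed NaP2b after Lipofectamine transfection. Each compound was run in duplicate over twelve concentrations, 0.1 nM–30 uM.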

The nature of series [3]: Determination of compound Cmax and AUC after oral gavage (plasma LC-MS/MS). The note with it: Sprague-Dawley, rat, plasma, po, Structure (I) examples, Table 15, actual oral dose 3-15 mg/kg, plasma 0.5-4 h. Type of series: in vivo, Sprague-Dawley rats. An outline of the steps:
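Plasma exposure measured by LC-MS/MS after acetonitrile precipitation with internal standard, quantified against a standard curve made in plasma. Compound given orally by gavage to Sprague-Dawley rats at nominal 2.5 or 10 mg/kg, with K2EDTA plasma sampled at 0.5, 1, 2 and 4 h.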

Some results are limits rather than exact numbers.

For “1-(3-(4-(diethylamino)-2-(4-(3-(trifluoromethyl)benzylcarbamoyl)pyridin-2-yl)phenylcarbamoyl)phenyl)-2,5,8,11,14,17-hexaoxanonadecan-19-yl 2,5,8,11,14,17,20-heptaoxadocosan-22-ylcarbamate [Example 174]”, the “% remaining, SGF” value in series [1] is on record as above 80%. Further, in series [2], the “% remaining, SIF” value was above 80%. On human NaP2b (SLC34A2) (33P Pi uptake, transfected HEK293 cells, 0.1 mM phosphate, value given as pIC50 range), the “pIC50 range for human NaP2b” value was above 6.0. For the same molecule, the “pIC50 range for rat Nap2b” value against rat NaP2b (SLC34A2) was 5.1-6.0.

`CCCN(CCC)c1ccc(NC(=O)c2cccc(C(=O)N(C)CCOCCOCCOCCC(=O)O)c2)c(-c2cc(C(=O)NCc3cccc(C(F)(F)F)c3)ccn2)c1` [Example 117]: the “% remaining, SGF” value in series [1] is given as above 80%. In series [2], the “% remaining, SIF” value is on record as above 80%. The IC50 at human NaP2b (SLC34A2) and on rat NaP2b (SLC34A2) was 1 to 7.94 µM throughout.

With `CCN(CC)c1ccc(NC(=O)c2cccc(COCCOCCOCCOCCOCCOCCOC(=O)NCCN3CCOCC3)c2)c(-c2cc(C(=O)NCc3cccc(C(F)(F)F)c3)ccn2)c1` [Example 169, 1-(3-(4-(diethylamino)-2-(4-(3-(trifluoromethyl)benzylcarbamoyl)pyridin-2-yl)phenylcarbamoyl)phenyl)-2,5,8,11,14,17-hexaoxanonadecan-19-yl 2-morpholinoethylcarbamate], the “% remaining, SGF” value in series [1] is recorded as above 80%. For the same molecule, the “% remaining, SIF” value in series [2] is on record as 60-80%. The IC50 at human NaP2b (SLC34A2) and on rat NaP2b (SLC34A2) was below 1 µM in each case.

`CCN(CC)c1ccc(NC(=O)c2cccc(COCCOCCOCCOCCOCCOCCOC(=O)N(C)CCN3CCOCC3)c2)c(-c2cc(C(=O)NCc3cccc(C(F)(F)F)c3)ccn2)c1` [Example 170, 1-(3-(4-(diethylamino)-2-(4-(3-(trifluoromethyl)benzylcarbamoyl)pyridin-2-yl)phenylcarbamoyl)phenyl)-2,5,8,11,14,17-hexaoxanonadecan-19-yl methyl(2-morpholinoethyl)carbamate]: the “% remaining, SGF” value in series [1] is above 80%. Moreover, in series [2], the “% remaining, SIF” value was 60-80%. For the same molecule, the IC50 is below 1 µM on human NaP2b (SLC34A2) and 1 to 7.94 µM at rat NaP2b (SLC34A2).

Regarding `CN(CCOCCOCCOCCC(=O)O)C(=O)c1cccc(C(=O)Nc2ccc(N3CCCCC3)cc2-c2cc(C(=O)NCc3cccc(C(F)(F)F)c3)ccn2)c1` [Example 248, 3-[2-(2-{2-[N-methyl-1-(3-{[4-(piperidin-1-yl)-2-[4-({[3-(trifluoromethyl)phenyl]methyl}carbamoyl)pyridin-2-yl]phenyl}carbamoyl}phenyl)formamido]ethoxy}ethoxy)ethoxy]propanoic acid], the “% remaining, SGF” value in series [1] is listed as above 80%. In series [3], this molecule displayed an AUC below 10 ng·h/mL and a maximum concentration (Cmax) below 10 ng/mL. For the same molecule, the “% remaining, SIF” value in series [2] is above 80%. The molecule also showed an IC50 against rat NaP2b (SLC34A2) of 10 to 31.6 µM.

`CN(CCOCCOCCOCCC(=O)N1CCN(CCOCCO)CC1)C(=O)c1cccc(C(=O)Nc2ccc(N3CCCCC3)cc2-c2cc(C(=O)N[C@H]3CCCc4ccccc43)ccn2)c1` [Example 250, 1-N-(2-{2-[2-(3-{4-[2-(2-hydroxyethoxy)ethyl]piperazin-1-yl}-3-oxopropoxy)ethoxy]ethoxy}ethyl)-1-N-methyl-3-N-[4-(piperidin-1-yl)-2-(4-{[(1S)-1,2,3,4-tetrahydronaphthalen-1-yl]carbamoyl}pyridin-2-yl)phenyl]benzene-1,3-dicarboxamide]: in series [1], the “% remaining, SGF” value is above 80%. In series [3], the AUC is below 10 ng·h/mL and the Cmax is below 10 ng/mL. Further, the “% remaining, SIF” value in series [2] was above 80%. In addition, on rat NaP2b (SLC34A2), the IC50 is 1 to 7.94 µM.

As for `COCCOCCOCCOCCOCCOCCOCCN(C)C(=O)[C@H]1CCCN(C(=O)c2cccc(C(=O)Nc3ccc(N4CCCCC4)cc3-c3cc(C(=O)N[C@H]4CCCc5ccccc54)ccn3)c2)C1` [Example 255, 2-(2-(3-((S)-3-(2,5,8,11,14,17,20-heptaoxadocosan-22-yl(methyl)carbamoyl)piperidine-1-carbonyl)benzamido)-5-(piperidin-1-yl)phenyl)-N—((S)-1,2,3,4-tetrahydronaphthalen-1-yl)isonicotinamide], the “% remaining, SGF” value in series [1] is reported as above 80%. In series [3], this molecule returned an AUC below 10 ng·h/mL and a peak concentration (Cmax) below 10 ng/mL. Further, in series [2], the “% remaining, SIF” value was above 80%. Also, the IC50 at rat NaP2b (SLC34A2) was 1 to 7.94 µM.

Regarding `COCCOCCOCCOCCOCCOCCOCCNC(=O)[C@H]1CCCN(C(=O)c2cccc(C(=O)Nc3ccc(N4CCCCC4)cc3-c3cc(C(=O)N[C@H]4CCCc5ccccc54)ccn3)c2)C1` [Example 256, 2-(2-(3-((S)-3-(2,5,8,11,14,17,20-heptaoxadocosan-22-ylcarbamoyl)piperidine-1-carbonyl)benzamido)-5-(piperidin-1-yl)phenyl)-N—((S)-1,2,3,4-tetrahydronaphthalen-1-yl)isonicotinamide], the “% remaining, SGF” value in series [1] is given as above 80%. In series [3], this molecule came in with an AUC below 10 ng·h/mL and a Cmax below 10 ng/mL. The “% remaining, SIF” value in series [2] is listed as above 80%. In addition, the IC50 against rat NaP2b (SLC34A2) is 1 to 7.94 µM.

In the case of `O=C(O)CCOCCOCCOCCOCCCc1cccc(C(=O)Nc2ccc(OC3CCC3)cc2-c2cc(C(=O)N[C@H]3CCCc4ccccc43)ccn2)c1` [Example 285, (S)-16-(3-((4-cyclobutoxy-2-(4-((1,2,3,4-tetrahydronaphthalen-1-yl)carbamoyl)pyridin-2-yl)phenyl)carbamoyl)phenyl)-4,7,10,13-tetraoxahexadecan-1-oic acid], the “% remaining, SGF” value in series [1] is 60-80%. Besides, in series [3], the exposure (AUC) is below 50 ng·h/mL and the Cmax was below 30 ng/mL. In addition, in series [2], the “% remaining, SIF” value is recorded as above 80%. In addition, the IC50 against rat NaP2b (SLC34A2) is below 1 µM.

`COCCOCCOCCOCCOCCOCCOCCN(C)CCN(C)C(=O)c1cccc(C(=O)Nc2ccc(N3CCCCC3)cc2-c2cc(C(=O)N[C@H]3CCCc4ccccc43)ccn2)c1` [Example 333, (S)—N^1-Methyl-N^1-(23-methyl-2,5,8,11,14,17,20-heptaoxa-23-azapentacosan-25-yl)-N3-(4-(piperidin-1-yl)-2-(4-(1,2,3,4-tetrahydronaphthalen-1-ylcarbamoyl)pyridin-2-yl)phenyl)isophthalamide]: the “% remaining, SGF” value in series [1] is on record as above 80%. In series [3], the exposure (AUC) is below 50 ng·h/mL and the highest concentration (Cmax) was below 30 ng/mL. In addition, in series [2], the “% remaining, SIF” value is above 80%. Further, the IC50 against rat NaP2b (SLC34A2) is 1 to 7.94 µM.

One may read the AUC as concentration integrated over time. Broadly, the Cmax is the maximum level reached in the sampled fluid or tissue.
